Data from patent publication US20070218475A1, “Efficient drug screening for protein targets” (priority 2005, published 2007).

Columns and labels:
Conditions in all cases: flow cytometry
SmoA1 = molecular target: T1, SmoA1 (Mus musculus, UniProt P56726, W539L); test: Fluorescence (BODIPY-cyclopamine) binding assay, SmoA1-expressing Cos-1 cells
T1 construct: expressed in transfected cells; host or cells: Cos-1
Procedure: (§1) Fluorescence binding assay: Cos-1 cells were transfected in 6-well plates with the described expression vectors (1 μg/well), and after two days, incubated in DMEM containing 10% fetal bovine serum, 5 nM BODIPY-cyclopamine, and various concentrations of the indicated competitors for 4-6 h at 37° C. For flow cytometry experiments, the cells were then trypsinized, collected by centrifugation, resuspended in phenol red-free DMEM containing 0.5% bovine calf serum, and analyzed for green fluorescence (FACScan, Beckton Dickinson). A fluorescence intensity range that excludes non-transfected cells was then selected for quantification of specific BODIPY-cyclopamine binding (see brackets in FIGS. 2C, 2D, and 3A). Curve fitting analysis was performed with Kaleidograph (Synergy Software).

[1] = molecular target: T2, Smo protein from Drosophila (Drosophila melanogaster, UniProt P91682); test: Fluorescence (BODIPY-cyclopamine) binding assay, Cos-1 cells expressing Drosophila Smo
T2 construct: expressed in transfected cells; host or cells: Cos-1
T2 sequence (P91682 32-1036): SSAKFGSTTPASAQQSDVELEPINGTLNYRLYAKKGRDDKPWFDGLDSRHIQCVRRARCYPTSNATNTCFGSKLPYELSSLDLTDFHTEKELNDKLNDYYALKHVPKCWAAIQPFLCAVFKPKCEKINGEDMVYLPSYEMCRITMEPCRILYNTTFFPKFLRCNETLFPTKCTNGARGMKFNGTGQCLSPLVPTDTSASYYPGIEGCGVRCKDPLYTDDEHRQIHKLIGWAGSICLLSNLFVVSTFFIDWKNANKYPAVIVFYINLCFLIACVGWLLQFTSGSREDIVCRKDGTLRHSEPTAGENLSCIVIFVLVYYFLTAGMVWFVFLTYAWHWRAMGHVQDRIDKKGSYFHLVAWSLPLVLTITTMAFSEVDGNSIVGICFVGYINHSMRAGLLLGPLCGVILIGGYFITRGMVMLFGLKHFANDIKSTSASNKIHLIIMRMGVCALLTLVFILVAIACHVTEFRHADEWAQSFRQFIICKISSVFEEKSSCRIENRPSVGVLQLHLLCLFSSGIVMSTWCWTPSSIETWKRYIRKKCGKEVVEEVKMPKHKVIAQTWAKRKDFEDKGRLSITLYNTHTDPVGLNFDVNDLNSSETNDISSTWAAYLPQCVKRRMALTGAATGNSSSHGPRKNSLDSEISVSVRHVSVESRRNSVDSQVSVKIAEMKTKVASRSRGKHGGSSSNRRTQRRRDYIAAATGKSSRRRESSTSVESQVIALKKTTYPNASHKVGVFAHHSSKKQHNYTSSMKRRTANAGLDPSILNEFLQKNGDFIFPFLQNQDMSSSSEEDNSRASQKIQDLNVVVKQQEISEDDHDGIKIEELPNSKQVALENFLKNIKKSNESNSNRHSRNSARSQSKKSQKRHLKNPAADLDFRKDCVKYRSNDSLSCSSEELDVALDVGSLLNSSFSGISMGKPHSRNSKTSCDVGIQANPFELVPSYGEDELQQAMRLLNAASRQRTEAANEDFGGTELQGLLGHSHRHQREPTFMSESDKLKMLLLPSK
Procedure: as §1

mouse Frizzled7 protein = molecular target: T3, mouse Frizzled7 protein (Mus musculus, UniProt Q61090); test: Fluorescence (BODIPY-cyclopamine) binding assay, Cos-1 cells expressing Frizzled7
T3 construct: expressed in transfected cells; host or cells: Cos-1
Procedure: as §1

mouse Ptch = molecular target: T4, mouse Ptch (Mus musculus, UniProt Q61115); test: Fluorescence (BODIPY-cyclopamine) binding assay, Cos-1 cells expressing Ptch
T4 construct: expressed in transfected cells; host or cells: Cos-1
T4 sequence (Q61115 1-1434): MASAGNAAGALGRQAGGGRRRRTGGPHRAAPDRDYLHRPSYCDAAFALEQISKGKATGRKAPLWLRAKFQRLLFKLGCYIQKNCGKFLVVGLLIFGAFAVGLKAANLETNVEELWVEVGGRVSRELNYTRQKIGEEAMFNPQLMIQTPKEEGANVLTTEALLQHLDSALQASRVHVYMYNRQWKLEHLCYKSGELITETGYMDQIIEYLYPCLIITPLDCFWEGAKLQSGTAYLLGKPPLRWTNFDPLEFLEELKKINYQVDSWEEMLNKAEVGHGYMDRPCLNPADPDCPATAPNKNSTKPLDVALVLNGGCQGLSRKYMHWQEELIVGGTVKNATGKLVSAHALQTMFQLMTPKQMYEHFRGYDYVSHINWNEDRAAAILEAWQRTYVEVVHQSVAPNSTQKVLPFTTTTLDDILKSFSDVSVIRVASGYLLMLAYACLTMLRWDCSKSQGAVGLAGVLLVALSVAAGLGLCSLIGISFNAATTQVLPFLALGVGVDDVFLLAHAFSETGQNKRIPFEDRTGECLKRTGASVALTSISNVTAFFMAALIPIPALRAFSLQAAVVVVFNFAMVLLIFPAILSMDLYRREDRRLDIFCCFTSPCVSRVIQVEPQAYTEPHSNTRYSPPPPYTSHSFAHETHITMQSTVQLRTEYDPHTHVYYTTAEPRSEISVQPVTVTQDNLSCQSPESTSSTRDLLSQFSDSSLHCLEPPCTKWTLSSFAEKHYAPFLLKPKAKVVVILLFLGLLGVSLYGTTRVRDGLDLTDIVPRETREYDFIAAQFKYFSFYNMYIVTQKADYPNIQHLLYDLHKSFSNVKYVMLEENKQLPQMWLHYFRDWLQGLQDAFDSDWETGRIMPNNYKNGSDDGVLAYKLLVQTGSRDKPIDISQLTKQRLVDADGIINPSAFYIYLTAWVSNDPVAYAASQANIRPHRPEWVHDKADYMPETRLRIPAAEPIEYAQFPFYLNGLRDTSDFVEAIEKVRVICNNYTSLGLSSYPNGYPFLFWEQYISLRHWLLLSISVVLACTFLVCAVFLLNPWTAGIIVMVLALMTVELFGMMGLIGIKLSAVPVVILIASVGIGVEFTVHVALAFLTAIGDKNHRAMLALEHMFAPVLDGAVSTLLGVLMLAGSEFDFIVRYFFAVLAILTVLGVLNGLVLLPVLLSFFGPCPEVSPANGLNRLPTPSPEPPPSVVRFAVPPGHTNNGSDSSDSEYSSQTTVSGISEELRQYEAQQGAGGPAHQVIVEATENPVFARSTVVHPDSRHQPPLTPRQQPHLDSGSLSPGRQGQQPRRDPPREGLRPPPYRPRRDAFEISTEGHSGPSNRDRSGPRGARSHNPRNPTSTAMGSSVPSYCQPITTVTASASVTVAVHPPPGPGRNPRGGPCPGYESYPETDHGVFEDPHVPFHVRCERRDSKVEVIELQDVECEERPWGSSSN
Procedure: as §1

T1 sequence (P56726 33-793 W539L): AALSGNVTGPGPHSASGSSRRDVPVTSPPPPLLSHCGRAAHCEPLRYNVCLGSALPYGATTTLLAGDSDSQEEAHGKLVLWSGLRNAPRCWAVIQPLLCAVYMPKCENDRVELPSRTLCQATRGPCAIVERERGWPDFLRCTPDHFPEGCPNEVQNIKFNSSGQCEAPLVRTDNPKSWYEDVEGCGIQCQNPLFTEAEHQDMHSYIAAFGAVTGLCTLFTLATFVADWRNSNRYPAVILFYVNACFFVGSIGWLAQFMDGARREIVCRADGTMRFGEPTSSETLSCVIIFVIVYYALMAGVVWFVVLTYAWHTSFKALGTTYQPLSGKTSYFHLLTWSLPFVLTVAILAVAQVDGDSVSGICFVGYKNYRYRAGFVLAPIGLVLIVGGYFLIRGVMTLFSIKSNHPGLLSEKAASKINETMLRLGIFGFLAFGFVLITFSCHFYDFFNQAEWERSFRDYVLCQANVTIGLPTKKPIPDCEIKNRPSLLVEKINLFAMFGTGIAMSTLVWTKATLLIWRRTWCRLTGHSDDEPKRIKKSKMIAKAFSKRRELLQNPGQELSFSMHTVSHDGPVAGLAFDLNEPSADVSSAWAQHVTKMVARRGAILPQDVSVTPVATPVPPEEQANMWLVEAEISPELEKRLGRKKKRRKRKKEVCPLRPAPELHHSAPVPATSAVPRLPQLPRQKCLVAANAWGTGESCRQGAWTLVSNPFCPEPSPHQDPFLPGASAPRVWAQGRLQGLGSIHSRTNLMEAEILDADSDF

CC1=C2CC3C(CC=C4C[C@@H](O)CCC43C)C2CCC12O[C@@H]1CC(C)CN(CCNC(=O)CCCCCNC(=O)CCC3=[N+]4C(=Cc5c(C)cc(C)n5[B-]4(F)F)C=C3)C1C2C (stereo partly shown) [BODIPY-cyclopamine]
did not bind: binding to cells expressing SmoA1 (SmoA1) | binding to cells expressing Drosophila Smo [1] | binding to cells expressing mouse Frizzled7 (mouse Frizzled7 protein) | binding to cells expressing mouse Ptch (mouse Ptch)
